The text below walks through data of US20180044628A1, “Method for Biofilm Control and Treatment” (priority 2015, published 2018).

Each structure is given as a SMILES string.

Common to all, as to type: cell-based, Bacillus subtilis NCIB 3610
Assay [1] deals with Bacillus subtilis biofilms. Briefly: Biofilm growth oscillations in a microfluidic device, followed by time-lapse phase contrast microscopy and image differencing. As to the method: Growth conditions. The biofilms were grown using MSgg medium^16. It contains 5 mM potassium phosphate buffer (pH 7.0), 100 mM MOPS buffer (pH 7.0, adjusted using NaOH), 2 mM MgCl2, 700 μM CaCl2, 50 μM MnCl2, 100 μM FeCl3, 1 μM ZnCl2, 2 μM thiamine HCl, 0.5% (v/v) glycerol and 0.5% (w/v) monosodium glutamate. The MSgg medium was made from stock solutions on the day of the experiment, and the stock solution for glutamate was made each week.
Microfluidics. The CellASIC ONIX Microfluidic Platform and the Y04D microfluidic plate (EMD Millipore) were used. It provides unconventionally large chambers, allowing the formation of colonies containing millions of cells, yet still leaves room for media flow. Media flow in the microfluidic chamber was driven by a pneumatic pump from the CellASIC ONIX Microfluidic Platform, and the pressure from the pump was kept stable during the course of the oscillation. In most of the experiments, a pump pressure of 1 psi was used with only one media inlet open (there are 6 media inlets in the Y04D plate), which corresponds to a flow speed of ˜16 μm/s in the growth chamber.
On the day before the experiment, cells from −80° C. glycerol stock were streaked onto LB agar plate and incubated at 37° C. for overnight. The next day morning, a single colony was picked from the plate and inoculated into 3 ml of LB broth in a 50 ml conical tube, and then incubated in 37° C. shaker. After 2.5 hours of incubation, the cell culture was centrifuged at 2100 rcf for 1 min, and then the cell pellet was re-suspended in MSgg and then immediately loaded into microfluidics. After the loading, cells in the microfluidic chamber were incubated at 37° C. for 90 min, and then the temperature was kept at 30° C. for the rest of the experiment.
Time-Lapse Microscopy. The growth of the biofilms was recorded using phase contrast microscopy. The microscopes used were Olympus IX81 and IX83, and DeltaVision PersonalDV. To image entire biofilms, 10× lens objectives were used in most of the experiments. Images were taken every 10 min Whenever fluorescence images were recorded, the minimum exposure time was used that still provided a good signal-to-noise ratio.
(§1) Biofilm growth rate. ImageJ (National Institutes of Health) and MATLAB (MathWorks) were used for image analysis. In house software was also developed to perform colony detection and quantification of colony expansion. Multiple methods of colony detection were used to ensure the accuracy of the analysis. To detect regions of expansion in a biofilm, image differencing was performed on snapshots of the biofilm from time-lapse microscopy videos. Specifically, the difference between two consecutive phase contrast images (taken 10 min apart) was calculated by finding the absolute difference between each pixel in each image. […] The intensity values from the stack correlate with the expansion inside the biofilm. The growth area was determined by converting difference images to binary images and then measuring the area of the colony growth region (white pixels). To measure cell replication time, the length and division of individual cells were tracked in the biofilm periphery (FIG. 8b).

Assay [2] deals with nasA promoter. Briefly: PnasA-YFP reporter of glutamine limitation in biofilms, with constitutive Phyperspank-CFP as control. As to the method:
FIG. 2a. […] Glutamine limitation was monitored using YFP expressed from the nasA promoter, which is activated upon glutamine limitation^21. FIG. 2b. […] FIG. 2c. Growth area before and after addition of 1 mM glutamine to an oscillating colony. FIG. 2d. […] FIG. 2e. […] Scale bar represents 100 μm. FIG. 2f. Growth area of an oscillating colony before and after addition of 30 mM glutamate (shading). FIG. 2g.
To determine whether biofilms experience glutamine limitation, expression of nasA, one of several genes activated in response to a lack of glutamine^21, was measured.

Assay [3] relates to Bacillus subtilis biofilms. Put plainly: Cell death (Sytox Green) and cell growth (difference images) within biofilms under external attack. As to the method:
Scale bar represents 50 μm. […] Error bars represent standard deviations.
Scale bar represents 100 μm.
as §1

[4] abbreviates: 1 mM glutamine added to growth media.

For the compound `N` [ammonium], the “colony growth after removal of external ammonium” value in assay [1] (additional ammonium (13 mM) suddenly removed from the media) is reported as “growth in the biofilm periphery halted”. The “effect on periodic halting in biofilm expansion” value in assay [1] (media supplemented with 1 mM ammonium) is “eliminated the periodic halting in biofilm expansion”. Besides, in assay [2] (1 mM external ammonium added), the “expression from constitutive reporter (Phyperspank-CFP + 1 mM IPTG)” value was “does not affect expression from a constitutive reporter” and the “expression from the PnasA-YFP reporter” value was “represses expression from the PnasA-YFP reporter”.

Take `O=C(N[C@H](CO)[C@H](O)c1ccc([N+](=O)[O-])cc1)C(Cl)Cl` [chloramphenicol]: in assay [3] (wild type biofilm, chloramphenicol 5 μg/ml (FIG. 12)), the “growth of interior cells after attack” value is “growth of interior cells was observed”.

Consider `N[C@@H](CCC(=O)O)C(=O)[O-].[Na+]` [glutamate, monosodium glutamate], for which the “effect on biofilm oscillations” value is on record as “not quenched” in assay [1] (30 mM glutamate added to MSgg medium, oscillating colony) and “leads to quenching of the oscillation” in assay [1] (glutamate increased by 5 times of normal MSgg levels).

`NC(=O)CC[C@H](N)C(=O)O` [glutamine]: the “effect on periodic halting of biofilm growth (oscillations)” value in assay [1] (1 mM glutamine added to MSgg medium, oscillating colony) is “eliminated periodic halting of biofilm growth”. Also, in assay [2] (setting [4]), the “expression of constitutive promoter (Phyperspank-CFP + 1 mM IPTG)” value is given as “did not affect expression of a constitutive promoter” and the “nasA promoter expression (PnasA-YFP)” value was “reduced nasA promoter expression”.

As to `OCC(O)CO` [glycerol], in assay [1] (glycerol increased by 5 times of normal MSgg levels), the “effect on biofilm oscillations” value was “does not”.

In the case of `OO` [hydrogen peroxide], the killing of biofilm entry in assay [3] (GDH overexpression strain (Phyp-RocG, induced with 1 mM IPTG) exposed to hydrogen peroxide) is recorded as “more effective global killing throughout the biofilm”. The “cell death (Sytox marker) in biofilm” value in assay [3] (wild type biofilm, H2O2 2% w/w (FIG. 4b) or 0.15% v/v (FIG. 12)) is on record as “increased cell death was observed predominantly in the biofilm periphery”. The “growth of interior cells after attack” value in assay [3] (wild type biofilm, H2O2 2% w/w (FIG. 4c) or 0.15% v/v (FIG. 12)) is on record as “led to growth of interior cells”.
